The subject of this assay is SPDEF. Put plainly: RT-PCR of SPDEF in IL-13-treated SAEC monolayer. The format is cell-based, human. The note with it: SAEC monolayer at ALI, IL-13 18 h. As to the method:
FIGS. 6A-6B. AR inhibition prevents IL-13-induced expression of Mucin and transcription factor SPDEF in airway epithelial cell monolayer. (A) The airway epithelial cell monolayer at ALI was serum starved without or with fidarestat and incubated with IL-13 for 18 h. Total RNA was isolated and subsequently RT-PCR was performed to assess the expression of Muc5AC and SPDEF. The bar diagrams show densitometric analysis of the corresponding blots (n=4). *p<0.001 vs Control; **p<0.001 vs IL-13; (B) The monolayer of ciliated airway cells at ALI was treated with AR inhibitor for 24 h and subsequently incubated with IL-13 for 24 or 48 h. At the end of incubation, cell lysate was prepared and subjected to western blotting using antibodies against Muc5AC, Muc5B, and SPDEF. The membranes were stripped and re-probed with antibodies against GAPDH to show the equal loading of protein. A representative blot is shown (n=4). *p<0.0001 vs Control; **p<0.001 vs IL-13.
For air-liquid interface (ALI) culture, SAEC were seeded at 8.5×10^4 cells/12-mm-diameter PET transparent insert with […] pores (12-well millicell culture insert; Millipore) and pre-coated with rat tail collagen type-1 (Sigma-Aldrich). The cells were grown submerged in the differentiation medium as described earlier by Zhen et al. (Am J Respir Cell Mol Biol 36: 244-253, 2007). […]

`NC(=O)[C@@H]1C[C@]2(NC(=O)NC2=O)c2cc(F)ccc2O1` [fidarestat, (2S,4S)-2-aminoformyl-6-fluoro-spiro[chroman-4,4′-imidazolidine]-2′,5′-dione]: the “IL-13-induced SPDEF mRNA levels” value is given as “decreased significantly”.

The values above are taken from US8785483B2, “Methods for treating COPD” (The Board of Regents of the University of Texas System, priority 2010, dated 2014).
